Counter-ions that a name gives are not always drawn.
Assay: room-temperature solubility in toluene
Type: physicochemical
Details: organic solvent or mixture, 1-naphthalene sulfonate counterion

Compound: C=CC[C@@]1(C)C[C@H](c2cccc(Cl)c2)[C@@H](c2ccc(Cl)cc2)[N+]2=C1OC[C@@H]2C(C)C [oxoiminium salt, (3S,5S,6R,8S)-8-Allyl-6-(3-chlorophenyl)-5-(4-chlorophenyl)-3-isopropyl-8-methyl-2,3,5,6,7,8-hexahydrooxazolo[3,2-a]pyridin-4-ium naphthalene-1-sulfonate]
- solubility: < 10000 µg/mL
